According to patent US6054435A, “6-O-substituted macrolides having antibacterial activity” (priority 1999, dated 2000):
≈ marks a conversion by molar mass, not a printed value.

Experiments:
Assay in all cases: in vitro antibacterial activity (MIC), agar dilution
Type in all cases: cell-based
[1] = system: Candida albicans CCH 442; conditions: organism code TT; BHI agar, 35-37° C., 20 to 24 hours; unit assumed
Procedure, shortened: (§1)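 BHI agar incorporation method; twelve compound concentrations. Streptococcus and other slow growers inoculated at 1:10, other strains at 1:100. Visual MIC read-out versus growth control.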

[2] = system: Enterococcus faecium ATCC 8043; conditions: organism code II; BHI agar, 35-37° C., 20 to 24 hours; unit assumed
Procedure, shortened: as §1

[3] = system: Escherichia coli DC-2; conditions: organism code SS; BHI agar, 35-37° C., 20 to 24 hours; unit assumed
Procedure, shortened: as §1

[4] = system: Escherichia coli JUHL; conditions: organism code QQ; BHI agar, 35-37° C., 20 to 24 hours; unit assumed
Procedure, shortened: as §1

[5] = system: Escherichia coli SS; conditions: organism code RR; BHI agar, 35-37° C., 20 to 24 hours; unit assumed
Procedure, shortened: as §1

[6] = system: Haemophilis Influenzae DILL AMP R; conditions: organism code WW; BHI agar, 35-37° C., 20 to 24 hours; unit assumed
Procedure, shortened: as §1

[7] = system: Micrococcus luteus ATCC 4698; conditions: organism code PP; BHI agar, 35-37° C., 20 to 24 hours; unit assumed
Procedure, shortened: (§2)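 Agar dilution in BHI agar, twelve successive compound dilutions. Inoculum 1:100, or 1:10 for slow-growing strains (e.g. Streptococcus), replicator-spotted. Read by eye; MIC = lowest concentration with no growth, slight haze or sparsely isolated colonies relative to growth control.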

[8] = system: Micrococcus luteus ATCC 9341; conditions: organism code OO; BHI agar, 35-37° C., 20 to 24 hours; unit assumed
Procedure, shortened: as §2

[9] = system: Mycobacterium smegmatis ATCC 114; conditions: organism code UU; BHI agar, 35-37° C., 20 to 24 hours; unit assumed
Procedure, shortened: as §1

[10] = system: Nocardia Asteroides ATCC9970; conditions: organism code VV; BHI agar, 35-37° C., 20 to 24 hours; unit assumed
Procedure, shortened: as §1

[11] = system: Staphylococcus aureus 1775; conditions: organism code GG; BHI agar, 35-37° C., 20 to 24 hours; unit assumed
Procedure, shortened: as §1

[12] = system: Staphylococcus aureus A-5278; conditions: organism code CC; BHI agar, 35-37° C., 20 to 24 hours; unit assumed
Procedure, shortened: as §1

[13] = system: Staphylococcus aureus A5177; conditions: organism code BB; BHI agar, 35-37° C., 20 to 24 hours; unit assumed
Procedure, shortened: as §1

[14] = system: Staphylococcus aureus ATCC 6538P; conditions: organism code AA; BHI agar, 35-37° C., 20 to 24 hours; unit assumed
Procedure, shortened: as §1

[15] = system: Staphylococcus aureus CMX 553; conditions: organism code FF; BHI agar, 35-37° C., 20 to 24 hours; unit assumed
Procedure, shortened: as §1

[16] = system: Staphylococcus aureus CMX 642A; conditions: organism code DD; BHI agar, 35-37° C., 20 to 24 hours; unit assumed
Procedure, shortened: as §1

[17] = system: Staphylococcus aureus NCTC10649M; conditions: organism code EE; BHI agar, 35-37° C., 20 to 24 hours; unit assumed
Procedure, shortened: as §1

[18] = system: Staphylococcus epidermidis 3519; conditions: organism code HH; BHI agar, 35-37° C., 20 to 24 hours; unit assumed
Procedure, shortened: as §1

[19] = system: Streptococcus Pneumonia 5649; conditions: organism code ZZA; BHI agar, 35-37° C., 20 to 24 hours; unit assumed
Procedure, shortened: as §1

[20] = system: Streptococcus Pneumonia 5979; conditions: organism code ZZ; BHI agar, 35-37° C., 20 to 24 hours; unit assumed
Procedure, shortened: as §1

[21] = system: Streptococcus Pneumonia ATCC6303; conditions: organism code XX; BHI agar, 35-37° C., 20 to 24 hours; unit assumed
Procedure, shortened: as §1

[22] = system: Streptococcus Pneumonia GYR 1171; conditions: organism code YY; BHI agar, 35-37° C., 20 to 24 hours; unit assumed
Procedure, shortened: as §1

[23] = system: Streptococcus agalactiae CMX 508; conditions: organism code KK; BHI agar, 35-37° C., 20 to 24 hours; unit assumed
Procedure, shortened: as §1

[24] = system: Streptococcus bovis A-5169; conditions: organism code JJ; BHI agar, 35-37° C., 20 to 24 hours; unit assumed
Procedure, shortened: as §1

[25] = system: Streptococcus pyogenes 930; conditions: organism code MM; BHI agar, 35-37° C., 20 to 24 hours; unit assumed
Procedure, shortened: as §1

[26] = system: Streptococcus pyogenes EES61; conditions: organism code LL; BHI agar, 35-37° C., 20 to 24 hours; unit assumed
Procedure, shortened: as §1

[27] = system: Streptococcus pyogenes PIU 2548; conditions: organism code NN; BHI agar, 35-37° C., 20 to 24 hours; unit assumed
Procedure, shortened: as §1

| Compound | MIC [1] | MIC [2] | MIC [3] | MIC [4] | MIC [5] | MIC [6] | MIC [7] | MIC [8] | MIC [9] | MIC [10] | MIC [11] | MIC [12] | MIC [13] | MIC [14] | MIC [15] | MIC [16] | MIC [17] | MIC [18] | MIC [19] | MIC [20] | also measured |
| --- | --- | --- | --- | --- | --- | --- | --- | --- | --- | --- | --- | --- | --- | --- | --- | --- | --- | --- | --- | --- | --- |
| CC[C@H]1OC(=O)[C@H](C)C(=O)[C@H](C)[C@@H](O[C@@H]2O[C@H](C)C[C@H](N(C)C)[C@H]2O)[C@](C)(OC/C=C/c2cnc(-c3cccs3)s2)C[C@@H](C)C(=O)[C@H](C)[C@H]2NC(=O)O[C@@]21C [Example 57] | > 100 mg/L | 0.05 mg/L (≈ 0.0622 µM) | 100 mg/L (≈ 124 µM) | 100 mg/L (≈ 124 µM) | 0.39 mg/L (≈ 0.485 µM) | 4 mg/L (≈ 4.97 µM) | 0.05 mg/L (≈ 0.0622 µM) | 0.02 mg/L (≈ 0.0249 µM) | 0.2 mg/L (≈ 0.249 µM) | 0.05 mg/L (≈ 0.0622 µM) | 100 mg/L (≈ 124 µM) | > 100 mg/L | 0.05 mg/L (≈ 0.0622 µM) | 0.1 mg/L (≈ 0.124 µM) | 0.1 mg/L (≈ 0.124 µM) | 0.05 mg/L (≈ 0.0622 µM) | 0.2 mg/L (≈ 0.249 µM) | 0.05 mg/L (≈ 0.0622 µM) | 0.25 mg/L (≈ 0.311 µM) | 0.5 mg/L (≈ 0.622 µM) | MIC [21]: ≤ 0.004 mg/L; MIC [22]: ≤ 0.004 mg/L; MIC [23]: 0.01 mg/L (≈ 0.0124 µM); MIC [24]: 0.02 mg/L (≈ 0.0249 µM); MIC [25]: 25 mg/L (≈ 31.1 µM); MIC [26]: 0.01 mg/L (≈ 0.0124 µM); MIC [27]: 0.1 mg/L (≈ 0.124 µM) |
| CC[C@H]1OC(=O)[C@H](C)C(=O)[C@H](C)[C@@H](O[C@@H]2O[C@H](C)C[C@H](N(C)C)[C@H]2O)[C@](C)(OC/C=C/c2cnc(-c3cnccn3)s2)C[C@@H](C)C(=O)[C@H](C)[C@H]2NC(=O)O[C@@]21C [Example 58] | > 100 mg/L | 0.02 mg/L (≈ 0.025 µM) | 100 mg/L (≈ 125 µM) | 50 mg/L (≈ 62.5 µM) | 0.2 mg/L (≈ 0.25 µM) | 4 mg/L (≈ 5 µM) | 0.05 mg/L (≈ 0.0625 µM) | 0.01 mg/L (≈ 0.0125 µM) | 1.56 mg/L (≈ 1.95 µM) | 0.02 mg/L (≈ 0.025 µM) | > 100 mg/L | > 100 mg/L | 0.05 mg/L (≈ 0.0625 µM) | 0.1 mg/L (≈ 0.125 µM) | 0.05 mg/L (≈ 0.0625 µM) | 0.1 mg/L (≈ 0.125 µM) | 0.1 mg/L (≈ 0.125 µM) | 0.1 mg/L (≈ 0.125 µM) | 0.25 mg/L (≈ 0.313 µM) | 4 mg/L (≈ 5 µM) | MIC [21]: ≤ 0.004 mg/L; MIC [22]: ≤ 0.004 mg/L; MIC [23]: 0.02 mg/L (≈ 0.025 µM); MIC [24]: 0.01 mg/L (≈ 0.0125 µM); MIC [25]: 3.1 mg/L (≈ 3.88 µM); MIC [26]: 0.02 mg/L (≈ 0.025 µM); MIC [27]: 0.1 mg/L (≈ 0.125 µM) |
| CC[C@H]1OC(=O)[C@H](C)C(=O)[C@H](C)[C@@H](O[C@@H]2O[C@H](C)C[C@H](N(C)C)[C@H]2O)[C@](C)(OC/C=C/c2cnc(-c3cncnc3)s2)C[C@@H](C)C(=O)[C@H](C)[C@H]2NC(=O)O[C@@]21C [Example 59] | > 100 mg/L | 0.02 mg/L (≈ 0.025 µM) | 50 mg/L (≈ 62.5 µM) | 50 mg/L (≈ 62.5 µM) | 0.2 mg/L (≈ 0.25 µM) | 4 mg/L (≈ 5 µM) | 0.1 mg/L (≈ 0.125 µM) | 0.01 mg/L (≈ 0.0125 µM) | 3.1 mg/L (≈ 3.88 µM) | 0.02 mg/L (≈ 0.025 µM) | > 100 mg/L | > 100 mg/L | 0.1 mg/L (≈ 0.125 µM) | 0.1 mg/L (≈ 0.125 µM) | 0.1 mg/L (≈ 0.125 µM) | 0.1 mg/L (≈ 0.125 µM) | 0.1 mg/L (≈ 0.125 µM) | 0.1 mg/L (≈ 0.125 µM) | 0.5 mg/L (≈ 0.625 µM) | 4 mg/L (≈ 5 µM) | MIC [21]: ≤ 0.004 mg/L; MIC [22]: ≤ 0.004 mg/L; MIC [23]: 0.01 mg/L (≈ 0.0125 µM); MIC [24]: ≤ 0.005 mg/L; MIC [25]: 6.2 mg/L (≈ 7.75 µM); MIC [26]: 0.01 mg/L (≈ 0.0125 µM); MIC [27]: 0.2 mg/L (≈ 0.25 µM) |
| CC[C@H]1OC(=O)[C@H](C)C(=O)[C@H](C)[C@@H](O[C@@H]2O[C@H](C)C[C@H](N(C)C)[C@H]2O)[C@](C)(OC/C=C/c2cnc(-c3cncs3)s2)C[C@@H](C)C(=O)[C@H](C)[C@H]2NC(=O)O[C@@]21C [Example 60] | > 100 mg/L | 0.02 mg/L (≈ 0.0248 µM) | 100 mg/L (≈ 124 µM) | 50 mg/L (≈ 62.1 µM) | 0.2 mg/L (≈ 0.248 µM) | 4 mg/L (≈ 4.97 µM) | 0.02 mg/L (≈ 0.0248 µM) | ≤ 0.005 mg/L | 1.56 mg/L (≈ 1.94 µM) | 0.01 mg/L (≈ 0.0124 µM) | > 100 mg/L | > 100 mg/L | 0.05 mg/L (≈ 0.0621 µM) | 0.1 mg/L (≈ 0.124 µM) | 0.05 mg/L (≈ 0.0621 µM) | 0.05 mg/L (≈ 0.0621 µM) | 0.1 mg/L (≈ 0.124 µM) | 0.1 mg/L (≈ 0.124 µM) | 0.25 mg/L (≈ 0.311 µM) | 1 mg/L (≈ 1.24 µM) | MIC [21]: ≤ 0.004 mg/L; MIC [22]: ≤ 0.004 mg/L; MIC [23]: 0.01 mg/L (≈ 0.0124 µM); MIC [24]: ≤ 0.005 mg/L; MIC [25]: 3.1 mg/L (≈ 3.85 µM); MIC [26]: 0.01 mg/L (≈ 0.0124 µM); MIC [27]: 0.2 mg/L (≈ 0.248 µM) |
| CC[C@H]1OC(=O)[C@H](C)C(=O)[C@H](C)[C@@H](O[C@@H]2O[C@H](C)C[C@H](N(C)C)[C@H]2O)[C@](C)(OC/C=C/c2ccc(-c3ncccn3)s2)C[C@@H](C)C(=O)[C@H](C)[C@H]2NC(=O)O[C@@]21C [Example 61] | > 100 mg/L | 0.05 mg/L (≈ 0.0626 µM) | 50 mg/L (≈ 62.6 µM) | 25 mg/L (≈ 31.3 µM) | 0.39 mg/L (≈ 0.488 µM) | 8 mg/L (≈ 10 µM) | 0.05 mg/L (≈ 0.0626 µM) | 0.01 mg/L (≈ 0.0125 µM) | 0.39 mg/L (≈ 0.488 µM) | 0.05 mg/L (≈ 0.0626 µM) | > 100 mg/L | > 100 mg/L | 0.1 mg/L (≈ 0.125 µM) | 0.05 mg/L (≈ 0.0626 µM) | 0.1 mg/L (≈ 0.125 µM) | 0.1 mg/L (≈ 0.125 µM) | 0.1 mg/L (≈ 0.125 µM) | 0.1 mg/L (≈ 0.125 µM) | 0.25 mg/L (≈ 0.313 µM) | 8 mg/L (≈ 10 µM) | MIC [21]: 0.015 mg/L (≈ 0.0188 µM); MIC [22]: 0.015 mg/L (≈ 0.0188 µM); MIC [23]: 0.01 mg/L (≈ 0.0125 µM); MIC [24]: 0.01 mg/L (≈ 0.0125 µM); MIC [25]: 50 mg/L (≈ 62.6 µM); MIC [26]: 0.01 mg/L (≈ 0.0125 µM); MIC [27]: 0.1 mg/L (≈ 0.125 µM) |
